Patent publication US20110251379A1, “COMPOUNDS USEFUL FOR TREATING NEURODEGENERATIVE DISORDERS” (Satori Pharmaceuticals, Inc., priority 2010, published 2011)
Where two headings read alike, the source gives them in different places.

Legend:
Assay type in all cases: cell-based
Aβ-42 = experiment: MSD Human (6E10) Ab 3-PLEX elisa, conditioned media of 2B7 cells: Aβ-42; settings: for IC50: Aβ-42 (superscript c); for inhibition at 20 µM: Aβ-42, 20 μM
Procedure: (§1) Assays were conducted to determine the ability of a Compound of Formula I to modulate […], and Aβ-38.
(§2) Plates with capture antibodies were blocked for 1-2 hours at room temperature with 150 μL of the manufactures blocking reagent.
(§3) Conditioned Media: • Cultured 2B7 cells in 96 well plate with 250 uL of media per well until confluent; • Prepared serial dilutions of compounds in DMSO at 100× the final desired concentration; • Washed wells with 2B7 cells 1× with 250 uL of media; • Diluted DMSO stocks 1:100 into media: • Added 250 μL of media containing compounds (1% DMSO) to wells with 2B7 cells for 5 hours at 37° C.
(§4) Elisa Sample Prep: • Diluted conditioned media: 1 part media with 1% DMSO and 1 part blocking buffer; • 150 μL of the 250 μL of conditioned media were used.
(§5) […] CURVE SAMPLE PREP: Prepared per manufacturer's protocol (see above) • Seven point standard curve samples were prepared that contained Aβ-42, Aβ-40, and Aβ-38. The highest concentration of Aβ-42 and Aβ-3-38 was 3,000 pg/mL and the highest concentration of Aβ-40 was 10,000 pg/mL. Subsequent serial dilutions were 1:3 and the final composition of each sample was 1 part blocking buffer and 1 part cell medium containing 1% DMSO.
(§6) Overnight Sample Incubation: • Blocked plates are washed 5× with MSD wash buffer with a plate washer • 25 uL of detection antibody and blocker G reagent in MSD blocking solution is added • 25 uL of samples (1 part conditioned media containing 1% DMSO and 1 part MSD blocking buffer) are then added. • plates are incubated overnight at 4 degrees C. or 2 hours at room temp
(§7) Final Wash and Readout: • Wash wells 5× with MSD wash buffer • Added 150 μL 2×MSD read buffer • Read with MSD imager.
(§8) A-Beta peptide levels for each peptide are calculated from the standard curve using the MSD software provided with the MSD 2400 Imager. Percent vehicle values for each compound dosage were then calculated and fit to a 4 parameter curve generating IC50 values.

Aβ-40 = experiment: MSD Human (6E10) Ab 3-PLEX elisa, conditioned media of 2B7 cells: Aβ-40; settings: for IC50: Aβ-40 (superscript b)
Procedure: as §1, §2, §3, §4, §5, §6, §7, §8

Aβ-38 = experiment: MSD Human (6E10) Ab 3-PLEX elisa, conditioned media of 2B7 cells: Aβ-38; settings: for IC50: Aβ-38 (superscript a)
Procedure: as §1, §2, §3, §4, §5, §6, §7, §8

[1] = Homo sapiens, read-out: 50% reduction value
[2] = Homo sapiens, read-out: IC50 range

| Compound | IC50 (Aβ-42; [1]) [nM] | IC50 (Aβ-42; [2]) [nM] | IC50 (Aβ-40; [1]) [nM] | IC50 (Aβ-38; [1]) [nM] | IC50 (Aβ-38; [2]) [nM] | IC50 (Aβ-40; [2]) [nM] | also measured |
| --- | --- | --- | --- | --- | --- | --- | --- |
| CCO[C@@H](C1C[C@@H](C)[C@H]2C(O1)[C@H](O)[C@@]1(C)C3CC[C@H]4C(C)(C)C(O[C@H]5CN(C6CCOC6)CCO5)CC[C@@]45C[C@@]35CC[C@]21C)C(C)(C)O (some centres unmarked) | < 1000 | < 1000 | 1000 to 10000 | < 1000 |  |  |  |
| CC1CC(C(OC(=O)C2CCOC2)C(C)(C)O)OC2C1C1(C)CCC34CC35CCC(OC3CN(C6COC6)CCO3)C(C)(C)C5CCC4C1(C)C2O (centres unmarked) |  |  |  |  |  |  | IC50 (Aβ-42; read-out: 50% reduction value): 1000 to 10000 nM; IC50 (Aβ-40; read-out: 50% reduction value): 1000 to 10000 nM; IC50 (Aβ-38; read-out: 50% reduction value): 1000 to 10000 nM; IC50 (Aβ-38; read-out: IC50 range): < 1000 nM |
| CCO[C@@H]([C@H]1C[C@@H](C)[C@H]2[C@H](O1)[C@H](O)[C@@]1(C)C3CC[C@H]4C(C)(C)C(OC(=O)N5CCC5)CC[C@@]45C[C@@]35CC[C@]21C)C(C)(C)O (some centres unmarked) | < 1000 | < 1000 |  | < 1000 | 1000 to 10000 |  | % Inh. (range) (Aβ-40; Aβ-40, 20 μM): E/F^b (20 μM) |
| CC(C)C(=O)OC(C1CC(C)C2C(O1)C(O)C1(C)C3CCC4C(C)(C)C(OC5CN(C6COC6)CCO5)CCC45CC35CCC21C)C(C)(C)O (centres unmarked) [drawing 1220] |  |  |  |  |  |  | IC50 (Aβ-42; read-out: 50% reduction value): < 1000 nM; IC50 (Aβ-40; read-out: 50% reduction value): 1000 to 10000 nM; IC50 (Aβ-38; read-out: 50% reduction value): < 1000 nM; IC50 (Aβ-38; read-out: IC50 range): < 1000 nM |
| C[C@@H]1CC(C(=O)O)OC2C1[C@@]1(C)CC[C@@]34C[C@@]35CC[C@H](OC3CN(C6COC6)CCO3)C(C)(C)[C@@H]5CC[C@H]4[C@]1(C)[C@H]2O (some centres unmarked) |  |  |  |  |  |  | inhibition at 20 µM (Aβ-42; Homo sapiens): < 25%; inhibition at 20 µM (Aβ-40; Homo sapiens, Aβ-40, 20 μM): < 25%; inhibition at 20 µM (Aβ-38; Homo sapiens, Aβ-38, 20 μM): < 25% |
| C[C@@H]1CC(COC(=O)N2CCC2)OC2[C@H]1[C@@]1(C)CC[C@@]34C[C@@]35CC[C@H](O[C@H]3CN(C(=O)CC6CC6)CCO3)C(C)(C)[C@@H]5CCC4[C@]1(C)[C@H]2O (some centres unmarked) |  | 1000 to 10000 |  |  | < 1000 | 1000 to 10000 |  |
| CC(=O)O[C@H](C(C)C)C1C[C@@H](C)[C@H]2C(O1)[C@H](O)[C@@]1(C)C3CC[C@H]4C(C)(C)[C@@H](O[C@H]5CN(C(=O)C(C)C)CCO5)CC[C@@]45C[C@@]35CC[C@]21C (some centres unmarked) | < 1000 | < 1000 | < 1000 | < 1000 | < 1000 |  |  |
| CC(C)[C@@H](OC(=O)N(C)C)C1C[C@@H](C)[C@H]2C(O1)[C@H](O)[C@@]1(C)C3CC[C@H]4C(C)(C)[C@@H](O)CC[C@@]45C[C@@]35CC[C@]21C (some centres unmarked) | < 10000 | 1000 to 10000 | 1000 to 10000 | < 1000 | 1000 to 10000 | > 10000 |  |
| CC(=O)N(Cc1ccccc1)CC1CC(C)C2C(O1)C(O)C1(C)C3CCC4C(C)(C)C(O)CCC45CC35CCC21C (centres unmarked) [drawing 1207] |  |  |  |  |  |  | IC50 (Aβ-42; read-out: 50% reduction value): 1000 to 10000 nM; IC50 (Aβ-42; read-out: IC50 range): < 1000 nM; IC50 (Aβ-40; read-out: 50% reduction value): 1000 to 10000 nM; IC50 (Aβ-38; read-out: 50% reduction value): 1000 to 10000 nM |
| CCO[C@@H]([C@H]1C[C@@H](C)[C@H]2[C@H](O1)[C@H](O)[C@@]1(C)[C@@H]3CC[C@H]4C(C)(C)[C@@H](OC5CN(C(=O)C(C)C)CCO5)CC[C@@]45C[C@@]35CC[C@]21C)C(C)(C)O (some centres unmarked) | < 1000 | < 1000 | 1000 to 10000 | < 1000 | < 1000 | 1000 to 10000 |  |
| C[C@@H]1C[C@H]([C@H](OC(N)=O)C(C)(C)O)O[C@H]2[C@H]1[C@@]1(C)CC[C@@]34C[C@@]35CC[C@H](O[C@H]3CN(C6COC6)CCO3)C(C)(C)[C@@H]5CCC4[C@]1(C)[C@H]2O (some centres unmarked) |  |  | > 10000 | 1000 to 10000 |  |  | inhibition at 20 µM (Aβ-42; Homo sapiens): 25 to 75% |
| CC(C)[C@@H](OC(=O)N1CCC1)C1C[C@@H](C)[C@H]2C(O1)[C@H](O)[C@@]1(C)C3CC[C@H]4C(C)(C)C(OC(=O)NC5CNC5)CC[C@@]45C[C@@]35CC[C@]21C (some centres unmarked) | < 1000 | < 1000 | 1000 to 10000 | < 1000 | < 1000 | 1000 to 10000 |  |
| CCOC(C)(C)[C@H](O)C1C[C@@H](C)[C@H]2C(O1)[C@H](O)[C@@]1(C)C3CC[C@H]4C(C)(C)C(O)CC[C@@]45C[C@@]35CC[C@]21C (some centres unmarked) |  |  | > 10000 | 1000 to 10000 |  |  | inhibition at 20 µM (Aβ-42; Homo sapiens): < 25% |
